Assays:
[1] = test system: HCC1954 breast ductal carcinoma; experiment: Cell viability (Cell Titer Glo 2.0) in HCC1954, 120 hours; format: cell-based; conditions: for potency compared to the 1,4-NH2 configuration of the P5 moiety in 19 and 26: HCC1954 and T47D assays; for IC50: Homo sapiens, HCC1954, 120 h, read-out: IC50 (nM), in vitro potency in HCC1954
Description: (§1) HCC1954 breast ductal carcinoma and T47D cells (ATCC, Manassas, VA, USA) were seeded into 384-well white-walled culture plates and allowed to adhere for 2-4 hours. Cells were then treated at least in duplicate by addition of 5-fold serially diluted test articles prepared at 2× final concentration and incubated at 37° C. for 120 hours. Cell viability following treatment was determined by Cell Titer Glo 2.0 Assay (Promega, Madison, WI, USA) and normalized to non-treated controls. Dose-response relationships were analyzed using GraphPad Prism (La Jolla, CA, USA), and IC50 values were derived from non-linear regression analyses using a 4-parameter logistic equation.

T47D cells = experiment: Cell viability (Cell Titer Glo 2.0) in T47D cells, 120 hours; format: cell-based
Description: as §1

[2] = NCH3-amide compared to its NH-amide analog (=1)
[3] = N-methylated analogs 1,2-/1,3-/1,4-NH2, relative to the 1,3-NH2 analog (=1)

SMILES | IC50 (fold difference) HCC1954 [1, 2] | IC50 (fold difference) T47D (T47D cells; [2]) | potency compared to the 1,4-NH2 configuration of the P5 moiety in 19 and 26 [1] | IC50 [1] | IC50 (fold difference) HCC1954 [1, 3] | IC50 (fold difference) T47D (T47D cells; [3])
CC[C@H](C)[C@@H]([C@@H](CC(=O)N1CCC[C@H]1[C@H](OC)[C@@H](C)C(=O)NCCc1cccc(N)c1)OC)N(C)C(=O)[C@@H](NC(=O)[C@H](C(C)C)N(C)C)C(C)C [Compound 20, (S)-N-((3R,4S,5S)-1-((S)-2-((1R,2R)-3-((3-aminophenethyl)amino)-1-methoxy-2-methyl-3-oxopropyl)pyrrolidin-1-yl)-3-methoxy-5-methyl-1-oxoheptan-4-yl)-2-((S)-2-(dimethylamino)-3-methylbutanamido)-N,3-dimethylbutanamide] | 1 fold difference | 1 fold difference | – | – | – | –
CC[C@H](C)[C@@H]([C@@H](CC(=O)N1CCC[C@H]1[C@H](OC)[C@@H](C)C(=O)N(C)CCc1cccc(N)c1)OC)N(C)C(=O)[C@@H](NC(=O)[C@H](C)N(C)C)C(C)C [Compound 2, (S)-N-((3R,4S,5S)-1-((S)-2-((1R,2R)-3-((3-aminophenethyl)(methyl)amino)-1-methoxy-2-methyl-3-oxopropyl)pyrrolidin-1-yl)-3-methoxy-5-methyl-1-oxoheptan-4-yl)-2-((S)-2-(dimethylamino)propanamido)-N,3-dimethylbutanamide] | – | – | more potent | < 5 nM | 1 fold difference | 1 fold difference
CC[C@H](C)[C@@H]([C@@H](CC(=O)N1CCC[C@H]1[C@H](OC)[C@@H](C)C(=O)N(C)CCc1ccc(N)cc1)OC)N(C)C(=O)[C@@H](NC(=O)[C@H](C(C)C)N(C)C)C(C)C [Compound 19, (S)-N-((3R,4S,5S)-1-((S)-2-((1R,2R)-3-((4-aminophenethyl)(methyl)amino)-1-methoxy-2-methyl-3-oxopropyl)pyrrolidin-1-yl)-3-methoxy-5-methyl-1-oxoheptan-4-yl)-2-((S)-2-(dimethylamino)-3-methylbutanamido)-N,3-dimethylbutanamide] | 2.3 fold difference | 6.9 fold difference | – | < 5 nM | 2.1 fold difference | 3.8 fold difference
CC[C@H](C)[C@@H]([C@@H](CC(=O)N1CCC[C@H]1[C@H](OC)[C@@H](C)C(=O)NCCc1ccccc1N)OC)N(C)C(=O)[C@@H](NC(=O)[C@H](C(C)C)N(C)C)C(C)C [Compound 21, (S)-N-((3R,4S,5S)-1-((S)-2-((1R,2R)-3-((2-aminophenethyl)amino)-1-methoxy-2-methyl-3-oxopropyl)pyrrolidin-1-yl)-3-methoxy-5-methyl-1-oxoheptan-4-yl)-2-((S)-2-(dimethylamino)-3-methylbutanamido)-N,3-dimethylbutanamide] | 1 fold difference | 1 fold difference | – | – | – | –
CC[C@H](C)[C@@H]([C@@H](CC(=O)N1CCC[C@H]1[C@H](OC)[C@@H](C)C(=O)N(C)CCc1ccccc1N)OC)N(C)C(=O)[C@@H](NC(=O)[C@H](C)N(C)C)C(C)C [Compound 16, (S)-N-((3R,4S,5S)-1-((S)-2-((1R,2R)-3-((2-aminophenethyl)(methyl)amino)-1-methoxy-2-methyl-3-oxopropyl)pyrrolidin-1-yl)-3-methoxy-5-methyl-1-oxoheptan-4-yl)-2-((S)-2-(dimethylamino)propanamido)-N,3-dimethylbutanamide] | – | – | more potent | < 5 nM | 1.8 fold difference | 3.4 fold difference
CC[C@H](C)[C@@H]([C@@H](CC(=O)N1CCC[C@H]1[C@H](OC)[C@@H](C)C(=O)N(C)CCc1ccc(N)cc1)OC)N(C)C(=O)[C@@H](NC(=O)[C@H](C)N(C)C)C(C)C [Compound 26, (S)-N-((3R,4S,5S)-1-((S)-2-((1R,2R)-3-((4-aminophenethyl)(methyl)amino)-1-methoxy-2-methyl-3-oxopropyl)pyrrolidin-1-yl)-3-methoxy-5-methyl-1-oxoheptan-4-yl)-2-((S)-2-(dimethylamino)propanamido)-N,3-dimethylbutanamide] | – | – | – | 5 to 10 nM | 4.2 fold difference | 12.7 fold difference
CC[C@H](C)[C@@H]([C@@H](CC(=O)N1CCC[C@H]1[C@H](OC)[C@@H](C)C(=O)N(C)CCc1cccc(N)c1)OC)N(C)C(=O)[C@@H](NC(=O)[C@H](C(C)C)N(C)C)C(C)C [Compound 1, (S)-N-((3R,4S,5S)-1-((S)-2-((1R,2R)-3-((3-aminophenethyl)(methyl)amino)-1-methoxy-2-methyl-3-oxopropyl)pyrrolidin-1-yl)-3-methoxy-5-methyl-1-oxoheptan-4-yl)-2-((S)-2-(dimethylamino)-3-methylbutanamido)-N,3-dimethylbutanamide] | 1.5 fold difference | 1.6 fold difference | more potent | < 5 nM | 1 fold difference | 1 fold difference
CC[C@H](C)[C@@H]([C@@H](CC(=O)N1CCC[C@H]1[C@H](OC)[C@@H](C)C(=O)NCCc1ccc(N)cc1)OC)N(C)C(=O)[C@@H](NC(=O)[C@H](C(C)C)N(C)C)C(C)C [Compound 22, (S)-N-((3R,4S,5S)-1-((S)-2-((1R,2R)-3-((4-aminophenethyl)amino)-1-methoxy-2-methyl-3-oxopropyl)pyrrolidin-1-yl)-3-methoxy-5-methyl-1-oxoheptan-4-yl)-2-((S)-2-(dimethylamino)-3-methylbutanamido)-N,3-dimethylbutanamide] | 1 fold difference | 1 fold difference | – | – | – | –
CC[C@H](C)[C@@H]([C@@H](CC(=O)N1CCC[C@H]1[C@H](OC)[C@@H](C)C(=O)N(C)CCc1ccccc1N)OC)N(C)C(=O)[C@@H](NC(=O)[C@H](C(C)C)N(C)C)C(C)C [Compound 14, (S)-N-((3R,4S,5S)-1-((S)-2-((1R,2R)-3-((2-aminophenethyl)(methyl)amino)-1-methoxy-2-methyl-3-oxopropyl)pyrrolidin-1-yl)-3-methoxy-5-methyl-1-oxoheptan-4-yl)-2-((S)-2-(dimethylamino)-3-methylbutanamido)-N,3-dimethylbutanamide] | 2.0 fold difference | 1.8 fold difference | more potent | < 5 nM | 0.8 fold difference | 1.3 fold difference

From patent US20260131016A1, “NOVEL AURISTATIN ANALOGS AND IMMUNOCONJUGATES THEREOF” (ADCENTRX THERAPEUTICS INC., priority 2021, published 2026)
